Measured values reported in patent US9067974B2, “Polymyxin derivatives and uses thereof” (priority 2006, dated 2015).

Assays:
E. coli IH3080 = test: Sensitization to rifampin: well diffusion growth inhibition on LB plates containing rifampin; type: cell-based, Escherichia coli
Description: (§1) From an overnight-grown culture of IH3080 on LB agar, a suspension of approx. 10^8 cells/ml was prepared in 0.9% NaCl. Aliquots of this suspension were then pipetted on the agar plates and the plates were gently shaken to spread the suspension evenly on the entire surface of the plate. Thereafter, the unabsorbed part of the suspension was removed by using a Pasteur pipette. After the surface had dried, small wells (diameter, 2 mm) were drilled on the plates (five wells per plate) by using a sterile sharp-edged narrow metal tube, single-use pipette tip, and vacuum suction. […] Controls included 0.9% NaCl solution without the compound to be tested. The plates were then incubated for 18 h at 37° C. whereafter the diameters of growth inhibition zones around each well were measured; the diameter of the well itself was not reduced. Finally, the diameters were converted to surface areas of growth inhibition (in square mm).

E. coli IH3080 (K1:O18) = test: Well diffusion growth inhibition on LB agar plates (direct antibacterial activity); type: cell-based, Escherichia coli
Description: Peptides synthesized in Example 1, all carrying at least two (2) but not more than three (3) positive charges, were studied for their ability to inhibit the growth of E. coli. This was tested employing LB agar (LB Agar Lennox, Difco, BD, Sparks, Md., U.S.A) plates. The indicator organism E. coli IH3080 (K1:O18) was an encapsulated strain originally isolated from a neonate suffering from meningitis (Vaara et al. 1984) and obtained from National Public Health Institute, Helsinki, Finland.
as §1

[1] = 4 μg of compound, rifampin 0 μg/ml
[2] = 4 μg of compound, rifampin 0.1 μg/ml
[3] = 4 μg of compound, rifampin 1.0 μg/ml

| Compound | Concentration of rifampin needed for the inhibitory effect in the absence of the compounds tested (E. coli IH3080; LB plates) | Antibacterial activity in the presence of rifampin (growth inhibition area around a well) (E. coli IH3080; [1]) | Antibacterial activity in the presence of rifampin (growth inhibition area around a well) (E. coli IH3080; [2]) | Antibacterial activity in the presence of rifampin (growth inhibition area around a well) (E. coli IH3080; [3]) | Antibacterial activity (growth inhibition area around a well) (E. coli IH3080 (K1:O18); 4 μg of compound per well) | Antibacterial activity (growth inhibition area around a well) (E. coli IH3080 (K1:O18); 10 μg of compound per well) | Antibacterial activity in the presence of rifampin (growth inhibition area around a well) (E. coli IH3080; 10 μg of compound, rifampin 1.0 μg/ml) |
| --- | --- | --- | --- | --- | --- | --- | --- |
| CO[C@H]1/C=C/O[C@@]2(C)Oc3c(C)c(O)c4c(O)c(c(/C=N/N5CCN(C)CC5)c(O)c4c3C2=O)NC(=O)/C(C)=C\C=C\[C@H](C)[C@H](O)[C@@H](C)[C@@H](O)[C@@H](C)[C@H](OC(C)=O)[C@@H]1C [rifampin, reference compound] | 10 µg/mL |  |  |  |  |  |  |
| Deacylcolistin [reference compound] |  | 79 square millimeters | 87 square millimeters | 127 square millimeters | 79 square millimeters | 95 square millimeters |  |
| Deacylpolymyxin B [reference compound] |  | 57 square millimeters | 79 square millimeters | 127 square millimeters | 57 square millimeters | 113 square millimeters |  |
| MHA-Abu-Thr-Abu-cy[Dab-Dab-DPhe-Leu-Dab-Dab-Thr-] [NAB 707] |  | 5 square millimeters | 87 square millimeters | 113 square millimeters | 5 square millimeters | 7 square millimeters |  |
| MHA-Dab-Thr-Dab-cy[Dab-Dab-DPhe-Leu-Abu-Abu-Thr-] [NAB 721] |  | 0 square millimeters | 13 square millimeters | 28 square millimeters | 0 square millimeters | 0 square millimeters |  |
| MHA-Thr-Abu-cy[Dab-Dab-DPhe-Leu-Dab-Dab-Thr-] [NAB 706] |  | 5 square millimeters | 79 square millimeters | 133 square millimeters | 5 square millimeters | 7 square millimeters |  |
| OA-Abu-cy[Dab-Dab-DPhe-Leu-Dab-Dab-Thr-] [NAB 713] |  | 0 square millimeters | 20 square millimeters | 38 square millimeters | 0 square millimeters | 0 square millimeters |  |
| OA-DAla-DAla-cy[Dab-Dab-DPhe-Leu-Dab-Dab-Thr-] [NAB 733] |  | 0 square millimeters | 95 square millimeters | 113 square millimeters | 0 square millimeters | 0 square millimeters |  |
| OA-Thr-Abu-cy[Dab-Abu-DPhe-Leu-Dab-Dab-Thr-] [NAB 710] |  | 0 square millimeters | 7 square millimeters | 13 square millimeters | 0 square millimeters | 7 square millimeters |  |
| OA-Thr-Abu-cy[Dab-Dab-DPhe-Leu-Dab-Abu-Thr-] [NAB 709] |  | 0 square millimeters | 0 square millimeters | 13 square millimeters | 0 square millimeters | 0 square millimeters |  |
| OA-Thr-Abu-cy[Dab-Lys-DPhe-Leu-Dab-Dab-Thr-] [NAB 731] |  | 0 square millimeters | 0 square millimeters | 5 square millimeters | 0 square millimeters | 0 square millimeters | 22 square millimeters |
| OA-Thr-Dab-cy[Dab-Abu-DPhe-Leu-Dab-Dab-Thr-] [NAB 715] |  | 0 square millimeters | 0 square millimeters | 33 square millimeters | 0 square millimeters | 0 square millimeters |  |
| Polymyxin B heptapeptide [reference compound] |  | 0 square millimeters | 0 square millimeters | 38 square millimeters | 0 square millimeters | 0 square millimeters |  |
